Values of other authors, collected in publication PMC7926471 (Viruses, 2021).

Test system: SARS-CoV-2
Conditions: pre and post treatment of Vero E6 cultures; cited from earlier work

CCN(CC)CCCC(C)Nc1ccnc2cc(Cl)ccc12 (centres unmarked) [Chloroquine, chloroquine diphosphate]
EC50: 1.13 µM | EC90: 6.9 µM
